Data on 18 molecules can be found in publication PMC10253456, “Investigating the Contribution of Major Drug-Metabolising Enzymes to Possum-Specific Fertility Control” (International Journal of Molecular Sciences, 2023).

The subject of data set [1] is CYP3A. As to the kind of experiment: CYP3A catalytic activity (erythromycin N-demethylation) in possum liver microsomes. The following applies: for Percent control catalytic activity at estimated IC50 / Percent control catalytic activity at estimated 2-fold IC50: possum liver microsomes, initial screen n=1; for Percent control catalytic activity at estimated IC50: compounds without reported IC50 at 1 µM; for Percent control catalytic activity at estimated 2-fold IC50: compounds without reported IC50 at 5 µM; for % of control (catalytic activity at 2-fold IC50) / Catalytic activity at 2-fold IC50: compound at estimated 2-fold IC50 (5 µM where none reported).
Protocol: (§1) Possums were collected from the Otago Peninsula (Dunedin) and the Okuti Valley, Banks Peninsula (Christchurch) in New Zealand in collaboration with the Otago Peninsula Biodiversity Group and Manaaki Whenua-Landcare Research, respectively. […] Possums were caged and humanely killed by a blow to the head, and the livers were harvested, snap-frozen in liquid nitrogen, and stored in a freezer at −80 °C until the preparation of microsomal fractions. […] Mice were euthanised by carbon dioxide inhalation and the livers were removed and microsomes prepared. […] The livers from avian species (mallards and a swan) were kindly donated by a local bird hunting group based in Dunedin, New Zealand. The livers from avian species were treated similarly to those mentioned above for the possum samples.
(§2) Microsomal preparation was carried out as previously described [76]. […] All procedures were performed at 0–4 °C. The liver samples were minced and homogenised in Buffer A (0.1 M Tris, 0.1 M potassium chloride, 1 mM EDTA, and 20 μM butylated hydroxytoluene, at pH = 7.4) using the Teflon-glass homogeniser (5–6 vertical passes). The samples were centrifuged at 10,000× g for 20 min. The supernatant was then transferred into another set of centrifuge tubes and spun at 100,000× g for 60 min. The pellet was resuspended in Buffer B (0.1 M potassium pyrophosphate, 1 mM EDTA, and 20 μM butylated hydroxytoluene, at pH = 7.4), homogenised, and recentrifuged at 100,000× g for 60 min. Finally, the pellet was homogenised in 1–2 mL of Buffer C (10 mM Tris-HCl, 1 mM EDTA, and 4% glycerol (v/v)), and stored at −80 °C until use. The protein concentration of the microsomes was determined using the bicinchoninic acid (BCA) method [77].
(§3) CYP3A catalytic activity was determined using the erythromycin N-demethylation activity assay, as described [78]. The reaction mixture (final volume of 1 mL and final protein concentration of 1 mg) contained 500 µL of microsomes in 0.1 M phosphate buffer (pH 7.4) and 400 µL of erythromycin buffer (0.45 mM), and 50 µL of the test compound was pre-warmed at 37 °C for 2 min. The reaction was initiated with 50 µL of 2.5 mM nicotinamide adenine dinucleotide phosphate (NADP^+) and incubated for 30 min at 37 °C. […] The tubes were vortexed and left for 5 min (at room temperature), and then 330 µL of saturated barium hydroxide was added. The tubes were further vortexed and left for 5 min (at room temperature). The tubes were then centrifuged at 1800× g for 10 min. To 830 µL of the supernatant, 330 µL of Nash reagent (30% (w/v) ammonium acetate, 0.4% (v/v) acetylacetone) was added and further incubated for 30 min at 60 °C. The blank tube contained 330 µL of Nash reagent and 830 µL of Milli-Q water. […] The CYP3A activities were determined in nmol/mg/min using standard curve data. Results presented are the mean ± SEM of 3 independent experiments performed in duplicate unless otherwise stated.

Data set [2] relates to CYP3A. As to the kind of experiment: CYP3A catalytic activity (erythromycin N-demethylation) in mouse liver microsomes. The following applies: for Percent control catalytic activity at estimated IC50 / Percent control catalytic activity at estimated 2-fold IC50: mouse liver microsomes, initial screen n=1; for Percent control catalytic activity at estimated IC50: compounds without reported IC50 at 1 µM; for Percent control catalytic activity at estimated 2-fold IC50: compounds without reported IC50 at 5 µM; for % of control (catalytic activity at 2-fold IC50) / Catalytic activity at 2-fold IC50: compound at estimated 2-fold IC50 (5 µM where none reported).
Protocol: as §1, §2, §3

Structures can show the parent of a compound that is named as a salt.

In the case of `O=C1c2ccc(O)cc2C(=O)c2ccc(O)cc21` [2,6-Dihydroxyanthraquinone], the entries for the “Percent control catalytic activity at estimated IC50” value in the data set on CYP3A [1] and with CYP3A [2] were 97 percent control and 106 percent control, respectively. Besides, the “Percent control catalytic activity at estimated 2-fold IC50” value was 102 percent control in the data set with CYP3A [1] and 128 percent control with CYP3A [2].
The corresponding values for `CC(=O)O[C@H]1CC[C@@]2(C)C(=CC[C@@H]3[C@@H]2CC[C@]2(C)C(c4cccnc4)=CC[C@@H]32)C1` [Abiraterone Acetate] are 128 percent control, 85 percent control, 110 percent control and 89 percent control.
Turning to `O=c1cc(-c2ccc(O)cc2)oc2cc(O)cc(O)c12` [Apigenin], the results for the “Percent control catalytic activity at estimated IC50” value in the data set with CYP3A [1] and with CYP3A [2] were 94 percent control and 116 percent control, respectively. Moreover, the “Percent control catalytic activity at estimated 2-fold IC50” value in the data set on CYP3A [1] is on record as 121 percent control; in the data set with CYP3A [2] it was 106 percent control.
As to `CC(C)c1cc(C(C)C)c(CC(=O)NS(=O)(=O)Oc2c(C(C)C)cccc2C(C)C)c(C(C)C)c1` [Avasimibe], in the data set on CYP3A [2], the “Percent control catalytic activity at estimated IC50” value was 91 percent control and the “Percent control catalytic activity at estimated 2-fold IC50” value was 92 percent control.
Turning to `O=[N+]([O-])c1cn(C(c2ccccc2)(c2ccccc2)c2ccccc2)cn1` [CDD3505], in the data set with CYP3A [1], the “Percent control catalytic activity at estimated IC50” value is 129 percent control and the “Percent control catalytic activity at estimated 2-fold IC50” value was 145 percent control. Further, in the data set with CYP3A [2], the “Percent control catalytic activity at estimated IC50” value was 88 percent control and the “Percent control catalytic activity at estimated 2-fold IC50” value was 89 percent control.
Take `O=C(O)[C@H](O)Cc1ccc(O)c(O)c1` [Danshensu]: the “Percent control catalytic activity at estimated IC50” value with CYP3A [1] was 113 percent control; in the data set with CYP3A [2], 97 percent control.
`COc1cc2c(cc1OC)[C@@H](Cc1ccc(Oc3cc(C[C@@H]4c5cc(OC)c(OC)cc5CCN4C)ccc3O)cc1)N(C)CC2` [Dauricine]: the “Percent control catalytic activity at estimated IC50” value is recorded as 108 percent control in the data set on CYP3A [1] and 113 percent control in the data set with CYP3A [2]. For the same molecule, the “Percent control catalytic activity at estimated 2-fold IC50” value was 117 percent control in the data set with CYP3A [1] and 112 percent control in the data set with CYP3A [2].
In the case of `O=C(O)c1ccc(-n2nc(-c3ccccc3O)nc2-c2ccccc2O)cc1` [Deferasirox], the “Percent control catalytic activity at estimated IC50” value is 93 percent control in the data set with CYP3A [1] and 87 percent control in the data set on CYP3A [2].
Regarding `C=CCSCC=C` [Diallyl sulfide], in the data set on CYP3A [1], the “Percent control catalytic activity at estimated IC50” value is given as 103 percent control and the “Percent control catalytic activity at estimated 2-fold IC50” value was 96 percent control. Moreover, in the data set on CYP3A [2], the “Percent control catalytic activity at estimated IC50” value is on record as 72 percent control and the “Percent control catalytic activity at estimated 2-fold IC50” value was 84 percent control.
`O=c1c(O)c(-c2ccccc2)oc2cc(O)cc(O)c12` [Galangin]: in the data set on CYP3A [1], the “Percent control catalytic activity at estimated IC50” value is 115 percent control and the “Percent control catalytic activity at estimated 2-fold IC50” value is reported as 103 percent control. Further, in the data set with CYP3A [2], the “Percent control catalytic activity at estimated IC50” value was 131 percent control and the “Percent control catalytic activity at estimated 2-fold IC50” value was 123 percent control.
For `CC12CC3CC(C)(C1)CC(N)(C3)C2` [Memantine HCl], in the data set on CYP3A [1], the “Percent control catalytic activity at estimated IC50” value is 117 percent control and the “Percent control catalytic activity at estimated 2-fold IC50” value is 109 percent control. In the data set on CYP3A [2], the “Percent control catalytic activity at estimated IC50” value is 104 percent control and the “Percent control catalytic activity at estimated 2-fold IC50” value was 98 percent control.
For the molecule `O=C1C[C@@H](c2ccc(O)cc2)Oc2cc(O)cc(O)c21` [Naringenin], the entries for the “Percent control catalytic activity at estimated IC50” value in the data set with CYP3A [1] and in the data set with CYP3A [2] were 84 percent control and 71 percent control, respectively. For the same molecule, the entries for the “% of control (catalytic activity at 2-fold IC50)” value in the data set on CYP3A [1] (possum) and in the data set on CYP3A [2] (mouse) were 175 % of control and 240 % of control, respectively. In addition, the entries for the “Catalytic activity at 2-fold IC50” value in the data set on CYP3A [1] (possum) and with CYP3A [2] (mouse) were 0.56 ± 0.02 nmol/mg/min and 1.09 ± 0.04 nmol/mg/min, respectively.
Regarding `C[C@@H]1O[C@@H](O[C@H]2[C@H](Oc3cc(O)c(C(=O)CCc4ccc(O)cc4)c(O)c3)O[C@H](CO)[C@@H](O)[C@@H]2O)[C@H](O)[C@H](O)[C@H]1O` [Naringin Dihydrochalcone], the “Percent control catalytic activity at estimated IC50” value in the data set on CYP3A [1] is given as 111 percent control; in the data set on CYP3A [2] it was 92 percent control. In addition, the “Percent control catalytic activity at estimated 2-fold IC50” value in the data set on CYP3A [1] is reported as 87 percent control; in the data set with CYP3A [2] it was 96 percent control. In addition, the “% of control (catalytic activity at 2-fold IC50)” value is recorded as 92 % of control in the data set with CYP3A [1] (possum) and 102 % of control in the data set with CYP3A [2] (mouse). The figures for the “Catalytic activity at 2-fold IC50” value with CYP3A [1] (possum) and in the data set with CYP3A [2] (mouse) were 0.33 ± 0.02 nmol/mg/min and 0.54 ± 0.07 nmol/mg/min, respectively. Besides, the “% of control (catalytic activity at IC50)” value is reported as 106 % of control in the data set with CYP3A [1] (possum, compound at estimated IC50 (1 µM where none reported)) and 97 % of control in the data set on CYP3A [2] (mouse, compound at estimated IC50 (1 µM where none reported)).
As to `Cl.O=C(O)/C=C/c1ccc(Cn2ccnc2)cc1` [Ozagrel HCl], in the data set with CYP3A [1], the “Percent control catalytic activity at estimated IC50” value is reported as 121 percent control and the “Percent control catalytic activity at estimated 2-fold IC50” value is listed as 95 percent control. Further, in the data set with CYP3A [2], the “Percent control catalytic activity at estimated IC50” value is on record as 92 percent control and the “Percent control catalytic activity at estimated 2-fold IC50” value was 85 percent control.
As to `O=C(O)/C=C/c1ccc(Cn2ccnc2)cc1` [Ozagrel], in the data set on CYP3A [1], the “Percent control catalytic activity at estimated IC50” value is given as 97 percent control and the “Percent control catalytic activity at estimated 2-fold IC50” value is listed as 109 percent control. In the data set with CYP3A [2], the “Percent control catalytic activity at estimated IC50” value is 93 percent control and the “Percent control catalytic activity at estimated 2-fold IC50” value is 92 percent control.
As for `Cc1ccc(-c2c(-c3nn(C)c4ncnc(N5CC[C@H](N6CCCCC6)C5)c34)cnn2C)cc1` [PF-4981517], in the data set on CYP3A [1], the “Percent control catalytic activity at estimated IC50” value is recorded as 98 percent control and the “Percent control catalytic activity at estimated 2-fold IC50” value is 108 percent control. For the same molecule, in the data set with CYP3A [2], the “Percent control catalytic activity at estimated IC50” value is reported as 101 percent control and the “Percent control catalytic activity at estimated 2-fold IC50” value is 110 percent control.
Take `COc1c(OC)c2occc2c2oc(=O)ccc12` [Pimpinellin]: the “Percent control catalytic activity at estimated IC50” value in the data set on CYP3A [1] is on record as 133 percent control; in the data set on CYP3A [2], 171 percent control.
On to `CCc1ccc(CCOc2ccc(CC3SC(=O)NC3=O)cc2)nc1` (stereo not drawn) [Pioglitazone HCl], for which the “Percent control catalytic activity at estimated IC50” value in the data set with CYP3A [1] is on record as 99 percent control; with CYP3A [2], 98 percent control. In addition, the “Percent control catalytic activity at estimated 2-fold IC50” value is 87 percent control with CYP3A [1] and 100 percent control in the data set on CYP3A [2].
